Series [1] relates to Mus musculus. Briefly: Protection against LPS-induced acute lung injury mouse model assessed as inhibition of neutrophil infiltration at 1 to 2 mg/kg, po preincubated for 4 hrs followed by LPS stimulation and measured after 6 hrs by H and E staining based analysis. The settings on record: dose 1-2 mg/kg, time 10.0 hrs. In kind it is functional, organism-based.
The test system of series [2] is RAW264.7. Briefly: Antiinflammatory activity in mouse RAW264.7 cells assessed as reduction in TNF alpha mRNA expression at 2.5 to 10 uM by RT-PCR analysis. It is filed as functional, cell-based. The settings on record: dose 2.5-10 µM.
A short description of series [3]: Inhibition of quorum sensing system in Pseudomonas aeruginosa PAO1 assessed as reduction in elastase level using BODIPY-FL-labeled DQ elastin conjugate as substrate measured after 24 hrs by fluorometric method.
For series [4], the system named is RAW264.7. In words: Antiinflammatory activity in LPS-induced mouse RAW264.7 cells assessed as inhibition of IkappaB-alpha expression pretreated for 3 hrs followed by LPS stimulation and measured after 24 hrs by Western blot analysis. It is filed as functional, cell-based. The settings on record: dose 1.25-10 µmol/L, time 27.0 hrs.
For series [5], the system named is Erythrocyte. Briefly: Hemolytic activity in human erythrocytes assessed as hemolysis at 0.625 to 10 micromol/L measured after 4 hrs by microplate reader method. It is filed as toxicity, cell-based. The settings on record: dose 0.625-10 µmol/L.
The subject of a further series is Pseudomonas aeruginosa. Briefly: Anti-biofilm activity against Pseudomonas aeruginosa PAO1 assessed as reduction in biofilm formation incubated for 24 hrs by crystal violet staning based analysis. In kind it is functional, organism-based.
Series [6] has as its system Erythrocyte. Briefly: Hemolytic activity in mouse erythrocytes assessed as hemolysis at 0.625 to 10 micromol/L measured after 4 hrs by microplate reader method. In kind it is toxicity, cell-based. The settings on record: dose 0.625-10 µmol/L.
Series [7] relates to Mus musculus. In words: Anti-inflammatory activity against LPS-induced acute lung injury mouse model assessed as downregulation of IL-6 level administered as po dose preincubated for 4 hrs followed by LPS stimulation and measured after 6 hrs by ELISA method. It is filed as functional, organism-based. The settings on record: dose 1-2 mg/kg, time 10.0 hrs. Background: ELISA stands for enzyme-linked immunosorbent assay.

The subject of series [8] is Mus musculus. Briefly: Protection against LPS-induced acute lung injury mouse model assessed as inhibition of edema at 1 to 2 mg/kg, po preincubated for 4 hrs followed by LPS stimulation and measured after 6 hrs by H and E staining based analysis. The settings on record: dose 1-2 mg/kg, time 10.0 hrs. In kind it is functional, organism-based.
Series [9] concerns Mus musculus. Briefly: Anti-inflammatory activity against LPS-induced acute lung injury mouse model assessed as reduction in iNOS mRNA expression at 1 to 2 mg/kg, po preincubated for 4 hrs followed by LPS stimulation and measured after 6 hrs. In kind it is functional, organism-based. The settings on record: dose 1-2 mg/kg, time 10.0 hrs.
Series [10] deals with RAW264.7. In words: Antiinflammatory activity in mouse RAW264.7 cells assessed as reduction in COX-2 mRNA expression at 2.5 to 10 uM by RT-PCR analysis. The settings on record: dose 2.5-10 µM. In kind it is functional, cell-based.
Series [11] deals with RAW264.7. In words: Antiinflammatory activity in LPS-induced mouse RAW264.7 cells assessed as inhibition of TNF-alpha production pretreated for 3 hrs followed by LPS stimulation and measured after 24 hrs by ELISA method. In kind it is functional, cell-based.
For series [12], the system named is Mus musculus. In words: Anti-inflammatory activity against LPS-induced acute lung injury mouse model assessed as reduction in IL-1 beta mRNA expression at 1 to 2 mg/kg, po preincubated for 4 hrs followed by LPS stimulation and measured after 6 hrs. In kind it is functional, organism-based. The settings on record: dose 1-2 mg/kg, time 10.0 hrs.

Active and inactive are the calls of the source. The calls are words filed in the database; no cut-off is given here.

Drawing on ChEMBL document CHEMBL5532656, “Novel ligustilide derivatives target quorum sensing system LasR/LasB and relieve inflammatory response against Pseudomonas aeruginosa infection” (Eur J Med Chem, 2024), this text covers Activity, IC50 and inhibition for one compound.

On to `CCCCC1(O)C2=C(C=CCC2)C(=O)N1Cc1ccc(C(F)(F)F)cc1` (stereo not given), for which the result in the series with Mus musculus [1], in the series with RAW264.7 [2], in the series with Mus musculus [8], in the series with Mus musculus [9], with RAW264.7 [10] and in the series on Mus musculus [12] was Active. In addition, the IC50 – broadly, the concentration that inhibits the measured activity by half – was 7.3 µM in series [3]; 7.4 µM in the series with Pseudomonas aeruginosa (PAO1, 24 h); 6.2 µM in the series on RAW264.7 [11]. Further, in series [3] (dose 0.625-10 µM), the inhibition entry is “Dose-Dependent Effect”. Besides, the Activity result in the series with RAW264.7 [4] is “Dose-Dependent Effect”; with Erythrocyte [5], “Toxic”; in the series on Pseudomonas aeruginosa (dose 0.625-10 µM) it was “Dose-Dependent Effect”; with Erythrocyte [6] it was “Toxic”; in the series with Mus musculus [7], “Dose-Dependent Effect”.
